Entries after “also recorded” stand apart in the source; their conditions may differ. Read-outs that look alike come from different tables or passages of the source.
How the values were obtained:
mouse [1] = tested on: mouse; parameters: species or system male CF-1 mice; unit not given here; settings: in vivo
dogs [2] = settings: dog, in vivo
mouse [3] = tested on: mouse; parameters: species or system male CF-1 mice; settings: in vivo
[4] = in vivo; cited from earlier work
dogs [5] = settings: dog, in vivo; cited from earlier work
[6] = tested on: flurothyl induced convulsions; settings: in vivo; cited from earlier work
mouse [7] = settings: in vivo; cited from earlier work
mouse [8] = settings: in vivo

For `FCOC(C(F)F)C(F)(F)F` (stereo not drawn) [XVI], the “MOUSE AC50” value (mouse [1]) was 0.84.

For `FC(F)OC(F)C(F)(F)C(F)F` (stereo not drawn) [VIII], the “convulsant effect in dogs” value (dogs [2]) was “NON[…] DOGS” and the “MOUSE AC50” value (mouse [1]) was 0.61.

For `COC(C(F)F)C(F)(F)F` (stereo not drawn) [XXII], the “MOUSE AC50” value (mouse [1]) was 1.5.

In the case of `FCOC(F)(C(F)F)C(F)(F)F` (stereo not drawn) [XIV], the “convulsant effect in dogs” value (dogs [2]) was “NON[…] DOGS” and the “MOUSE AC50” value (mouse [1]) was 2.5.

In the case of `FCOC(C(F)(F)F)C(F)(F)F` [XV], the “convulsant effect in dogs” value (dogs [2]) was “NON[…] DOGS” and the “MOUSE AC50” value (mouse [1]) was 1.4.

In the case of `COCC(F)(F)C(F)F` [XX], the “MOUSE AC50” value (mouse [1]) was 2.5.

For `FC(F)C(F)(F)COC(F)(F)F` [VI], the “MOUSE […]., VOL. %” value (mouse [3]) is listed as at most 0.5 VOL. %, the convulsions and death [4] is listed as “VIOLENT C[…] DEATH” and the “time to violent convulsions and death” value [4] is listed as 30 to 120 s.

With `COC(F)(F)C(F)C(F)(F)F` (stereo not drawn) [XVIII, methyl 1,1,2,3,3,3-hexafluoropropyl ether] the “MOUSE AC50” value (mouse [1]) was 3.9.

With `FC(F)OCC(F)(F)C(F)F` [I, Difluoromethyl 2,2,3,3-tetrafluoropropyl ether] the “MOUSE […]., VOL. %” value (mouse [3]) was 1.0 VOL. % and the “[…] (type of convulsions)” value (mouse [3]) was “CLONIC CONVULSIONS”.

With `FC(F)OC(F)C(F)(F)C(F)(F)F` (stereo not drawn) [IX] the “MOUSE AC50” value (mouse [1]) was 4.3.

In the case of `FC(F)OC(F)(C(F)F)C(F)F` [IV, Difluoromethyl 1,1,2,3,3-pentafluoro-2-propyl ether], the “MOUSE […]., VOL. %” value (mouse [3]) was 1.2 VOL. %, the “[…] (type of convulsions)” value (mouse [3]) was “C[…] SEDATION” and the “convulsant effect in dogs” value (dogs [2]) was “OPISTHOTONOID”.

In the case of `FC(F)OCC(F)(F)C(F)(F)F` [II, Difluoromethyl 2,2,3,3,3-pentafluoropropyl ether], the “MOUSE […]., VOL. %” value (mouse [3]) was 1.4 VOL. % and the “[…] (type of convulsions)” value (mouse [3]) was “CLONIC AND TONIC CONVULSIONS, CATALEPSY”.

For `COCC(F)(F)C(F)(F)F` [XIX, methyl 2,2,3,3,3-pentafluoropropyl ether], the “MOUSE AC50” value (mouse [1]) is given as 11 and the effect in dogs (dogs [5]) is given as “EXTENSOR RIGIDITY OF HIND LEGS; also recorded: TREMORS”.

In the case of `FC(F)OC(C(F)F)C(F)F` [XII], the “MOUSE AC50” value (mouse [1]) was 0.64.

In the case of `FCOCC(F)(F)C(F)(F)F` [V, Fluoromehtyl 2,2,3,3,3-pentafluoropropyl ether], the “MOUSE […]., VOL. %” value (mouse [3]) was 1.5 VOL. % and the “[…] (type of convulsions)” value (mouse [3]) was “METRAZOLE-LIKE CONVULSIONS”.

In the case of `FC(F)OC(C(F)(F)F)C(F)(F)F` [X], the “convulsant effect in dogs” value (dogs [2]) was “NON[…] DOGS” and the “MOUSE AC50” value (mouse [1]) was 2.5.

In the case of `FC(F)OC(F)(F)C(F)C(F)(F)F` (stereo not drawn) [III, Difluoromethyl 1,1,2,3,3,3-hexafluoropropyl ether], the “MOUSE […]., VOL. %” value (mouse [3]) was 2.0 VOL. %.

In the case of `COC(C(F)(F)F)C(F)(F)F` [XXI], the “antagonism to flurothyl induced convulsions” value [6] is listed as “ANTAGONIST”, the “convulsant effect in dogs” value (dogs [2]) is listed as “NON[…] DOGS” and the “MOUSE AC50” value (mouse [1]) is listed as 2.2.

For `FC(F)OC(C(F)F)C(F)(F)F` (stereo not drawn) [XI], the “MOUSE AC50” value (mouse [1]) was 0.84.

For `FC(F)(F)COCC(F)(F)F` [VII, flurothyl], the “[…] (type of convulsions)” value (mouse [3]) is listed as “CLONIC AND TONIC CONVULSIONS”, the “time to clonic and tonic convulsions” value (mouse [3]) is listed as 30 s and the “MOUSE […]., VOL. %” value (mouse [7]) is listed as at most 0.25 VOL. %.

In the case of `COC(F)(F)C(F)(F)C(F)(F)F` [XVII], the cause of death (mouse [8]) was “DEATH DUE TO ANOXIA”.

In the case of `FCOC(F)(F)C(F)C(F)(F)F` (stereo not drawn) [XIII], the “MOUSE AC50” value (mouse [1]) was 2.1.

In the case of `COC(C(F)F)C(F)F` [XXIII], the “MOUSE AC50” value (mouse [1]) was 1.4.

— patent US3943256A (priority 1974, dated 1976)
